Values after ≈ are worked out from the molar mass of the structure shown. Where a SMILES comes first, the peptide text is derived from it. [ ]: non-standard residue; d: D form. The star is where a group is joined. Phe(4-NO2) = N[C@@H](Cc1ccc([N+](=O)[O-])cc1)C(=O)O; Phe(4-NH2) = Nc1ccc(C[C@H](N)C(=O)O)cc1; 4Abz = Nc1ccc(C(=O)O)cc1; Propionyl = CCC(=O)*; Bz = O=C(c1ccccc1)*
Assays:
HBV DNA replication = test: In vitro anti-HBV: inhibition of HBV DNA replication in 2.2.15 cells (dot blot); type: cell-based, hepatitis B virus; conditions: day 8, dot blot; for IC50: Hepatitis B virus, 192 h
Protocol: (§1) Cell control wells were simultaneously set up. […] IC50 and SI were calculated, respectively.

2.2.15 cells = test: Cytotoxicity (TC50, median toxic concentration) in 2.2.15 cells; type: cell-based
Protocol: as §1

COC(=O)[C@H](Cc1ccccc1)NC(=O)[C@H](Cc1ccccc1)NC(=O)c1ccc(F)cc1 [Example 03, methyl N-(N-4-fluoro-benzoyl-L-phenylalanyl)-L-phenylalaninate]
IC50 (HBV DNA replication): 0.63 µg/mL (≈ 1.4 µM)
TC50 (2.2.15 cells): 17.81 µg/mL (≈ 39.7 µM)

COC(=O)[C@H](Cc1ccc(O)cc1)NC(=O)[C@H](Cc1ccccc1)NC(=O)c1ccccc1 [Example 04, methyl N-(N-benzoyl-L-phenylalanyl)-L-tyrosinate] (Bz-Phe-Tyr-OMe)
IC50 (HBV DNA replication): 51.8 µg/mL (≈ 116 µM)
melting point: 184 to 186 °C
TC50 (2.2.15 cells): 450.67 µg/mL (≈ 1010 µM)

Cc1cccc(C(=O)N[C@@H](Cc2ccccc2)C(=O)N[C@H](CO)Cc2ccccc2)c1 [Example 05, N-(N-3-methyl-benzoyl-L-phenylalanyl)-L-phenylalaninol]
IC50 (HBV DNA replication): 25.2 µg/mL (≈ 60.5 µM)
melting point: 177 to 178.5 °C
TC50 (2.2.15 cells): 77.04 µg/mL (≈ 185 µM)

O=C(N[C@@H](Cc1ccccc1)C(=O)N[C@H](CO)Cc1ccccc1)c1ccc(Cl)cc1 [Example 07, N-(N-4-chloro-benzoyl-L-phenylalanyl)-L-phenylalaninol]
IC50 (HBV DNA replication): 1.02 µg/mL (≈ 2.33 µM)
melting point: 211.5 to 214 °C
TC50 (2.2.15 cells): 28.74 µg/mL (≈ 65.8 µM)

COC(=O)[C@H](Cc1ccc(O)cc1)NC(=O)[C@H](Cc1ccc([N+](=O)[O-])cc1)NC(=O)c1ccccc1 [Example 14, methyl N-(N-benzoyl-4-nitro-L-phenylalanyl)-L-tyrosinate] (Bz-[Phe(4-NO2)]-Tyr-OMe)
IC50 (HBV DNA replication): 1.16 µg/mL (≈ 2.36 µM)
melting point: 200 to 202 °C
TC50 (2.2.15 cells): 53.42 µg/mL (≈ 109 µM)

O=C(N[C@@H](Cc1ccc(O)cc1)C(=O)N[C@H](CO)Cc1ccccc1)c1ccc(Cl)cc1 [Example 19, N-(N-4-chloro-benzoyl-L-tyrosyl)-L-phenylalaninol]
IC50 (HBV DNA replication): 103 µg/mL (≈ 228 µM)
TC50 (2.2.15 cells): 587.06 µg/mL (≈ 1300 µM)

COC(=O)[C@H](Cc1ccccc1)NC(=O)[C@H](Cc1ccc(O)cc1)NC(=O)c1ccc(Cl)cc1 [Example 20, methyl N-(N-4-chloro-benzoyl-L-tyrosyl)-L-phenylalaninate]
IC50 (HBV DNA replication): 48.5 µg/mL (≈ 101 µM)
melting point: 203.5 to 205 °C
TC50 (2.2.15 cells): 198.46 µg/mL (≈ 413 µM)

O=C(N[C@@H](Cc1ccc(O)cc1)C(=O)N[C@H](CO)Cc1ccccc1)c1ccccc1Cl [Example 22, N-(N-2-chloro-benzoyl-L-tyrosyl)-L-phenylalaninol]
IC50 (HBV DNA replication): 106 µg/mL (≈ 234 µM)
melting point: 168 to 169 °C
TC50 (2.2.15 cells): 346.68 µg/mL (≈ 765 µM)

COC(=O)[C@H](Cc1ccccc1)NC(=O)[C@H](Cc1ccc(O)cc1)NC(=O)c1ccccc1Cl [Example 23, methyl N-(N-2-chloro-benzoyl-L-tyrosyl)-L-phenylalaninate]
IC50 (HBV DNA replication): 52 µg/mL (≈ 108 µM)
melting point: 175.5 to 177.5 °C
TC50 (2.2.15 cells): 240.38 µg/mL (≈ 500 µM)

O=C(N[C@@H](Cc1ccc(O)cc1)C(=O)N[C@H](CO)Cc1ccccc1)c1ccc(F)cc1 [Example 24, N-(N-4-fluoro-benzoyl-L-tyrosyl)-L-phenylalaninol]
IC50 (HBV DNA replication): 96 µg/mL (≈ 220 µM)
melting point: 194.5 to 195.5 °C
TC50 (2.2.15 cells): 396.81 µg/mL (≈ 909 µM)

COC(=O)[C@H](Cc1ccccc1)NC(=O)[C@H](Cc1ccc(O)cc1)NC(=O)c1ccc(F)cc1 [Example 25, methyl N-(N-4-fluoro-benzoyl-L-tyrosyl)-L-phenylalaninate]
IC50 (HBV DNA replication): 68.7 µg/mL (≈ 148 µM)
melting point: 186.5 to 189 °C
TC50 (2.2.15 cells): 574.76 µg/mL (≈ 1240 µM)

COC(=O)[C@H](Cc1ccc(O)cc1)NC(=O)[C@H](Cc1ccccc1)NC(=O)c1ccc(NC(C)=O)cc1 [Example 36, methyl N-[N-(4-acetamido-benzoyl)-L-phenylalanyl]-L-tyrosinate] (Ac-[4Abz]-Phe-Tyr-OMe)
IC50 (HBV DNA replication): 4.56 µg/mL (≈ 9.06 µM)
melting point: 215.5 to 217 °C
TC50 (2.2.15 cells): 388.03 µg/mL (≈ 771 µM)

CCC(=O)Nc1ccc(C(=O)N[C@@H](Cc2ccccc2)C(=O)N[C@@H](Cc2ccccc2)C(=O)OC)cc1 [Example 37, methyl N-[N-(4-propionamido-benzoyl)-L-phenylalanyl]-L-phenylalaninate] ({Propionyl-4Abz}-Phe-Phe-OMe)
IC50 (HBV DNA replication): 1.43 µg/mL (≈ 2.85 µM)
melting point: 225 to 227 °C
TC50 (2.2.15 cells): 129.34 µg/mL (≈ 258 µM)

CCC(=O)Nc1ccc(C(=O)N[C@@H](Cc2ccccc2)C(=O)N[C@@H](Cc2ccc([N+](=O)[O-])cc2)C(=O)OC)cc1 [Example 38, methyl N-[N-(4-propionamido-benzoyl)-L-phenylalanyl]-4-nitro-L-phenylalaninate] ({Propionyl-4Abz}-Phe-[Phe(4-NO2)]-OMe)
IC50 (HBV DNA replication): 2.39 µg/mL (≈ 4.37 µM)
melting point: 221 to 223 °C
TC50 (2.2.15 cells): 80.13 µg/mL (≈ 147 µM)

CC(=O)Nc1ccc(C(=O)N[C@@H](Cc2ccccc2)C(=O)N[C@H](CO)Cc2ccccc2)cc1 [Example 39, N-[N-(4-acetamido-benzoyl)-L-phenylalanyl]-L-phenylalaninol]
IC50 (HBV DNA replication): 0.34 µg/mL (≈ 0.74 µM)
melting point: 193 to 195 °C
TC50 (2.2.15 cells): 14.37 µg/mL (≈ 31.3 µM)

CN(C)Cc1ccc(C(=O)N[C@@H](Cc2ccccc2)C(=O)N[C@H](CO)Cc2ccccc2)cc1 [Example 49, N-[N-(4-dimethylaminomethyl-benzoyl)-L-phenylalanyl]-L-phenylalaninol]
IC50 (HBV DNA replication): 7.28 µg/mL (≈ 15.8 µM)
TC50 (2.2.15 cells): 86.23 µg/mL (≈ 188 µM)

O=C(N[C@@H](Cc1ccccc1)C(=O)N[C@H](CO)Cc1ccccc1)c1ccc(CN2CCCC2)cc1 [Example 50, N-{N-[4-(1-pyrrolidyl)methyl-benzoyl]-L-phenylalanyl}-L-phenylalaninol]
IC50 (HBV DNA replication): 7.04 µg/mL (≈ 14.5 µM)
melting point: 164 to 165 °C
TC50 (2.2.15 cells): 64.15 µg/mL (≈ 132 µM)

CC(=O)Nc1ccc(C[C@H](NC(=O)c2ccccc2)C(=O)N[C@H](COC(C)=O)Cc2ccccc2)cc1 [Example 54, N-(N-benzoyl-4-acetamido-L-phenylalanyl)-O-acetyl-L-phenylalaninol]
IC50 (HBV DNA replication): 0.82 µg/mL (≈ 1.63 µM)
TC50 (2.2.15 cells): 43.11 µg/mL (≈ 85.9 µM)

CC(=O)OC[C@H](Cc1ccccc1)NC(=O)[C@H](Cc1ccccc1)NC(=O)c1ccccc1 [Example 55, N-(N-benzoyl-L-phenylalanyl)-O-acetyl-L-phenylalaninol]
IC50 (HBV DNA replication): 4.96 µg/mL (≈ 11.2 µM)
TC50 (2.2.15 cells): 53.42 µg/mL (≈ 120 µM)

COC(=O)[C@H](Cc1ccc(N)cc1)NC(=O)[C@H](Cc1ccccc1)NC(=O)c1ccccc1.Cl [Example 58, methyl N-(N-benzoyl-L-phenylalanyl)-4-amino-L-phenylalaninate hydrochloride] (Bz-Phe-[Phe(4-NH2)]-OMe)
melting point: 173 to 175 °C
TC50 (2.2.15 cells): 28.74 µg/mL

COC(=O)[C@H](Cc1ccc(NC(C)=O)cc1)NC(=O)[C@H](Cc1ccccc1)NC(=O)c1ccccc1 [Example 59, methyl N-(N-benzoyl-L-phenylalanyl)-4-acetamido-L-phenylalaninate] (Bz-Phe-[Phe(4-NH2)](Ac)-OMe)
melting point: 228 to 229.5 °C
TC50 (2.2.15 cells): 258.69 µg/mL (≈ 531 µM)

COC(=O)[C@H](Cc1ccccc1)NC(=O)[C@H](Cc1ccc(OC(C)=O)c(NC(C)=O)c1)NC(=O)c1ccccc1 [Example 63, methyl N-(N-benzoyl-O-acetyl-3-acetamido-L-tyrosyl)-L-phenylalaninate]
IC50 (HBV DNA replication): 53.1 µg/mL (≈ 97.4 µM)
TC50 (2.2.15 cells): 358.02 µg/mL (≈ 656 µM)

CCC(=O)Nc1ccc(C[C@H](NC(=O)[C@H](Cc2ccccc2)NC(=O)c2ccccc2)C(=O)OC)cc1 [Example 64, methyl N-(N-benzoyl-L-phenylalanyl)-4-propionamido-L-phenylalaninate] (Bz-Phe-[Phe(4-NH2)](Propionyl)-OMe)
melting point: 244.5 to 246 °C
TC50 (2.2.15 cells): 58.54 µg/mL (≈ 117 µM)

CC(=O)c1ccc(C[C@@H](CO)NC(=O)[C@H](Cc2ccccc2)NC(=O)c2ccccc2)cc1 [Example 69, N-(N-benzoyl-L-phenylalanyl)-4-acetyl-L-phenylalaninol]
melting point: 235.5 to 238 °C
TC50 (2.2.15 cells): 75.46 µg/mL (≈ 170 µM)

COC(=O)[C@H](Cc1ccc(OC)cc1)NC(=O)[C@H](Cc1ccccc1)NC(=O)c1ccccc1 [Example 71, methyl N-(N-benzoyl-L-phenylalanyl)-O-methyl-L-tyrosinate] (Bz-Phe-Tyr(Me)-OMe)
IC50 (HBV DNA replication): 6.62 µg/mL (≈ 14.4 µM)
TC50 (2.2.15 cells): 388.03 µg/mL (≈ 843 µM)

CN(C)CCOc1ccc(C(=O)N[C@@H](Cc2ccccc2)C(=O)N[C@H](CO)Cc2ccccc2)cc1 [Example 77, N-[N-4-(2-dimethylamino-ethoxyl)-benzoyl-L-phenylalanyl]-L-phenylalaninol]
Inhibition of DNA Replication IC50 (HBV DNA replication): 13.51 µg/mL
TC50 (2.2.15 cells): 160.25 µg/mL (≈ 327 µM)

COC(=O)[C@H](Cc1ccccc1)NC(=O)[C@H](Cc1ccccc1)NC(=O)c1ccc(OCCN(C)C)cc1 [Example 78, methyl N-[N-4-(2-dimethylamino-ethoxyl)-benzoyl-L-phenylalanyl]-L-phenylalaninate]
Inhibition of DNA Replication IC50 (HBV DNA replication): 54.28 µg/mL
TC50 (2.2.15 cells): 257.31 µg/mL (≈ 497 µM)

COc1ccc(C[C@H](NC(=O)[C@H](Cc2ccccc2)NC(=O)c2ccccc2)C(=O)[O-])cc1.[Na+] [Example 79, N-(N-benzoyl-L-phenylalanyl)-O-methyl-L-tyrosine sodium salt] (Bz-Phe-Tyr(Me)-OH)
IC50 (HBV DNA replication): 9.59 µg/mL
TC50 (2.2.15 cells): 86.23 µg/mL

O=C(O)CCC(=O)Nc1ccc(C[C@H](NC(=O)c2ccccc2)C(=O)N[C@H](CO)Cc2ccccc2)cc1 [Example 83, N-[N-benzoyl-4-(3-carboxyl-propionamido)-L-phenylalanyl]-L-phenylalaninol]
IC50 (HBV DNA replication): 253 µg/mL (≈ 488 µM)
TC50 (2.2.15 cells): >1000 µg/mL

CN(C)c1ccc(C[C@H](NC(=O)c2ccccc2)C(=O)N[C@H](CO)Cc2ccccc2)cc1 [Example 84, N-(N-benzoyl-4-dimethylamino-L-phenylalanyl)-L-phenylalaninol]
IC50 (HBV DNA replication): 1.44 µg/mL (≈ 3.23 µM)
TC50 (2.2.15 cells): 86.23 µg/mL (≈ 194 µM)

O=C(N[C@@H](Cc1ccccc1)C(=O)N[C@@H](Cc1ccccc1)C(=O)O)c1ccccc1 [Example 86, N-(N-benzoyl-L-phenylalanyl)-L-phenylalanine] (Bz-Phe-Phe-OH)
IC50 (HBV DNA replication): 10.6 µg/mL (≈ 25.4 µM)
TC50 (2.2.15 cells): 130.56 µg/mL (≈ 313 µM)

O=C(N[C@@H](Cc1ccc([N+](=O)[O-])cc1)C(=O)N[C@@H](Cc1ccccc1)C(=O)O)c1ccccc1 [Example 88, N-(N-benzoyl-4-nitro-L-phenylalanyl)-L-phenylalanine] (Bz-[Phe(4-NO2)]-Phe-OH)
IC50 (HBV DNA replication): 25 µg/mL (≈ 54.2 µM)
TC50 (2.2.15 cells): 388.03 µg/mL (≈ 841 µM)
